Tests used:
mice [1] = test: Hot-plate test (antinociception); format: in vivo, mouse; conditions: sc
Procedure: (§1) In the tail-flick method of D'Amour and Smith, (D'Amour, F. E.; Smith, D. L. J. Pharmacol. Exp. Ther. 1941, 72, 74-79), the tail is exposed to a heat lamp and the amount of time taken for the animal to move (flick) its tail away from the heat is recorded. […] Mice were placed into a 10-cm wide glass cylinder on a hot plate (Thermojust Apparatus) maintained at 55.0° C. Two control latencies at least 10 min apart were determined for each mouse. […] The reaction time was scored when the animal jumped or licked its paws. The mice were tested 5 min after subcutaneous (sc) injections of nicotinic ligands for the dose-response determination. Antinociceptive response was calculated as percentage of maximum possible effect (% MPE, where % MPE=[(test−control)/(maximum latency−control)×100]).

mice [2] = test: Tail-flick test (antinociception); format: in vivo, mouse; conditions: sc
Procedure: as §1

α4β2 nAChR = α4β2 nAChR (Rattus norvegicus (Rat), UniProt P09483+P12390); test: Inhibition of [3H]epibatidine binding at the α4β2 nAChR in male rat cerebral cortex; conditions: read-out: αβ [3H]Epibatidine (Ki)
α4β2 nAChR, sequence (P09483 31-630 limits assumed): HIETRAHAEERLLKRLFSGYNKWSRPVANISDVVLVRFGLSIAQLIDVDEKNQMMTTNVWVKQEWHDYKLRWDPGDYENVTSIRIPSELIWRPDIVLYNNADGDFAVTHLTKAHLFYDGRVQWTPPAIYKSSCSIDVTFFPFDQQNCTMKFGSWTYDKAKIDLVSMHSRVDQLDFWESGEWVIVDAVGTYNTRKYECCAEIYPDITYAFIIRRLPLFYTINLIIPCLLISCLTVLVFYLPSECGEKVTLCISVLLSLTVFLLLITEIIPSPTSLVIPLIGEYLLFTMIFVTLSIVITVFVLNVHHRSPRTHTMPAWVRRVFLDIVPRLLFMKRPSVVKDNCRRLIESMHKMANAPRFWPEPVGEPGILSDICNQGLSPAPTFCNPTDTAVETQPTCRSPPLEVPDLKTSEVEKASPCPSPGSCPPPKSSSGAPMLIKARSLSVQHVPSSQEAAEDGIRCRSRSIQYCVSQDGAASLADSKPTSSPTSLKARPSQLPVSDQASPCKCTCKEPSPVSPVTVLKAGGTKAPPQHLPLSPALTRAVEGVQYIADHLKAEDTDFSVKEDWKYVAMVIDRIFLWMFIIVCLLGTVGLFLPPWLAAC
α4β2 nAChR, sequence (P12390 25-500 limits assumed): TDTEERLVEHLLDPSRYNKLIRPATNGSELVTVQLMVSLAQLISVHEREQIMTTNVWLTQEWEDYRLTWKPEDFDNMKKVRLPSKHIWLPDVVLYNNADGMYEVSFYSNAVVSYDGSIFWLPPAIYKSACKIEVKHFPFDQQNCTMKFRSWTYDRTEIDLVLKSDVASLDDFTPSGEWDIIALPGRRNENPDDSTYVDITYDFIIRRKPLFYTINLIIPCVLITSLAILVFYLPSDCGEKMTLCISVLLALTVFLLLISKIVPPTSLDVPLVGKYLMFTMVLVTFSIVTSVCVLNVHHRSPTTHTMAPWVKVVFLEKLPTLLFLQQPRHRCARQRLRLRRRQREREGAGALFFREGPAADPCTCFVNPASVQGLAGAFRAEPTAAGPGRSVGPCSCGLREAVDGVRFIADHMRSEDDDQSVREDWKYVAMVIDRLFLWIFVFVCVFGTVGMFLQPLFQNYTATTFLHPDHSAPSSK

α7 nAChR = α7 nAChR (Rattus norvegicus (Rat), UniProt Q05941); format: binding; conditions: read-out: α7 [125I]iodoMLA (Ki)
α7 nAChR, sequence (Q05941 23-502 limits assumed): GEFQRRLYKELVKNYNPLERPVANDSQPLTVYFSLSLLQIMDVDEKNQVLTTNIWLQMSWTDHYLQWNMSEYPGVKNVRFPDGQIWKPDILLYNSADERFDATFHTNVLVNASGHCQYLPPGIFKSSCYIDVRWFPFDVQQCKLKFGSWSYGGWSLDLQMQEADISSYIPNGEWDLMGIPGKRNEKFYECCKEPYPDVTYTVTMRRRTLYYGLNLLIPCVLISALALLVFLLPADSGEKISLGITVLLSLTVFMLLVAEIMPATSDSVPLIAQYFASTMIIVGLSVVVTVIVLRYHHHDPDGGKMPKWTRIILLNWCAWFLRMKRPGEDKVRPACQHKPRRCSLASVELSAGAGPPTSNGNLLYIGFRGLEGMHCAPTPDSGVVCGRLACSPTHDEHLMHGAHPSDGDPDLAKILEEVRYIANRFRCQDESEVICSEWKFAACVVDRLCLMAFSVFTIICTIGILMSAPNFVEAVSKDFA

mice [3] = test: Spontaneous activity (photocell activity cages); format: in vivo, mouse; conditions: sc
Procedure: (§2) Interruptions of the photocell beams (two banks of eight cells each) were then recorded for the next 10 min. Data were expressed as number of photocell interruptions. Rectal temperature was measured by a thermistor probe (inserted 24 mm) and digital thermometer (Yellow Springs Instrument Co., Yellow Springs, Ohio). […] The difference in rectal temperature before and after treatment was calculated for each mouse. The ambient temperature of the laboratory varied from 21 to 24° C. from day to day.

mice [4] = test: Hypothermia (rectal temperature); format: in vivo, mouse; conditions: sc
Procedure: as §2

mice [5] = test: Antagonism of nicotine antinociception, tail-flick; format: in vivo, mouse
Procedure: as §1
(§3) Nicotine was administered at a dose of 2.5 mg/kg, sc (an ED84 dose), and mice were tested 5 min later. ED50 and AD50 values with 95% confidence limits were determined.

mice [6] = test: Antagonism of nicotine antinociception, hot-plate; format: in vivo, mouse; conditions: before nicotine 2.5 mg/kg sc
Procedure: as §1, §3

Row | Substance | ED50 Hot-Plate (mice [1]; tested 5 min after injection) [mg/kg] | ED50 Tail-Flick (mice [2]; tested 5 min after injection) [mg/kg] | Ki (α4β2 nAChR) [nM] | Ki (α7 nAChR) [nM] | ED50 Spontaneous Activity (mice [3]) [mg/kg] | ED50 Hypothermia (mice [4]) [mg/kg] | Antagonism Tail-Flick, % at dose (mice [5]; @ 500 μg/kg, before nicotine 2.5 mg/kg sc) [% @ 500] | Antagonism Hot-Plate, % at dose (mice [6]; @ 500 μg/kg) [% @] | Hot-Plate, % effect at dose (mice [1]; @ 10 mg/kg) [% @ 10] | Tail-Flick, % effect at dose (mice [2]; @ 10 mg/kg) [% @ 10] | AD50 Tail-Flick (mice [5]; mice pretreated sc 10 min before nicotine 2.5 mg/kg sc) [mg/kg] | Antagonism Hot-Plate, % at dose (mice [6]; @ 2000 μg/kg) [% @]
1 | 2-exo-2-Fluoro-3-(3′-benzamide)deschloroepibatidine Hydrochloride [RTI-7527-169] | 3.6 | 5.6 | 0.36 ± 0.088 | 870 | 1 | 1.7 | 10 | 20 | – | – | – | –
2 | 2-exo-2-Fluoro-3-(4′-benzamide)deschloroepibatidine Hydrochloride [RTI-7527-168] | – | – | 0.12 ± 0.021 | 1870 | 3.5 | 4.2 | – | – | 60 | 16 | 0.009 | 1
